Measured values: US8012959B2, “Diaminopyrimidinecarboxamide derivative” (Astellas Pharma Inc., priority 2002, dated 2011)

Columns and labels:
STAT 6 = biological target: T1, STAT 6 (Mus musculus, UniProt P52633); assay: STAT 6-dependent reporter activity (IL-4-stimulated CI/FW4 luciferase reporter cell); type: cell-based, human
T1 construct: An STAT 6 reporter cell CI/FW4 was constructed by the above operation; endogenous in cells; host or cells: CI/FW4 (FW4 cell stably carrying the pGL2-CI/bs luciferase reporter)
T1 sequence (P52633 1-837): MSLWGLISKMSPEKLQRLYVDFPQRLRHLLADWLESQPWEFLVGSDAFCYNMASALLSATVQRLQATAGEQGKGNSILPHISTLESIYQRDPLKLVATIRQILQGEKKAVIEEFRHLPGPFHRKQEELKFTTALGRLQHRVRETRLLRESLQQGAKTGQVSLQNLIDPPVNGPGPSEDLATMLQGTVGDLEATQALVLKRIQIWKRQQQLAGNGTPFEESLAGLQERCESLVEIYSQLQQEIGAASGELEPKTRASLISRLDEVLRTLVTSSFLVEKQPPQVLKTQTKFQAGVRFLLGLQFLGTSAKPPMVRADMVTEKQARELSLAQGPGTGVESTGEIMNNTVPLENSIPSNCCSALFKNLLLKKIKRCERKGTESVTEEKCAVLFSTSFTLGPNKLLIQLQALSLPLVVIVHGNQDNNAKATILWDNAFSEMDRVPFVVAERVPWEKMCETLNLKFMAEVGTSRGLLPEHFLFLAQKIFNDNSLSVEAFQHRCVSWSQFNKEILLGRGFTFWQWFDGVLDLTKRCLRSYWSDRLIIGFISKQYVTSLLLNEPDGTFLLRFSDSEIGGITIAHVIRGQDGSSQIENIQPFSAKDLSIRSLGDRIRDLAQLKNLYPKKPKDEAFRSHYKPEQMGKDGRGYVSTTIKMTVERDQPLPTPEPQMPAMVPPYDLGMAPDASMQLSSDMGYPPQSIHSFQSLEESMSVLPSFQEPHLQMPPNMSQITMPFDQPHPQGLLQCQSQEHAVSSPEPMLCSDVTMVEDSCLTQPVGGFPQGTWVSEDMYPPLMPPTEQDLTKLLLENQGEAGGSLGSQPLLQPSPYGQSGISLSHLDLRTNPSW
Protocol: Measurement of STAT 6-Dependent Reporter Activity 1) Construction of STAT 6 Reactive Reporter Plasmid A STAT 6 reporter plasmid pGL2-CI was prepared by the following method. […] Also, […] sequence DNA molecules (SEQ ID NOs:3 and 4) contained in the adenovirus major late promoter were annealed and inserted into BglII and HindIII sites of the same vector. Thereafter, pGL2-CI/bs was constructed by inserting the blasticidin resistance gene of pUCSV-BD (Funakoshi) into BamHI site of the constructed pGL2-CI. 2) Construction of STAT 6 Reporter Cell Gene transfer of […] into a human IL-4 reactive cell FW4 cell (Mol. Cell. Biol., 14: 5433-5440) was carried out by the electroporation method (320 V, 960 μF/0.4 cm cuvette (Nippon Bio-Rad Laboratories)), and 6 μg/ml of blasticidin (Funakoshi) was added 40 hours thereafter to select a resistant cell. Confirmation of constant transfer of the reporter plasmid was carried out by detecting luciferase induce by IL-4 stimulation. An STAT 6 reporter cell CI/FW4 was constructed by the above operation. 3) STAT Reporter Assay Using CI/FW4 Cell Stimulation of the CI/FW4 cell (1×10^4 cells/0.1 ml) with 10 ng/ml of human IL-4 (Genzyme Techne) was carried out using a white 96 well plate (Nunc). In the case of the evaluation of compounds, compound dilutions were added to the wells before inoculating the cells into the 96 well plate. […] Thereafter, 50 μl of a luciferase substrate solution (10 mM Tris-HCl pH 7.8, 5 mM luciferin, 2 mM coenzyme A, 2 mM ATP, 0.5 mM MgCl2 and 2 mM Mg(OH)2) was added, followed by stirring for 1 minute. Then, the luciferase activity was measured using ML3000 luminometer (Dynatech Laboratories, Inc). Inhibitory activities of tested compounds were evaluated in which the luminescence intensity (relative light unit: […] The results are shown in the following Table 26.

T cells = assay: Th2 differentiation (IL-4 production by differentiated mouse spleen T cells, ELISA); type: cell-based; details: inhibition of Th2 differentiation (IL-4 production, ELISA), C57BL/6 mouse spleen T cells
Protocol: Measurement of Th2 Differentiation
T cells were prepared by removing nylon wool (Wako Pure Chemical Industries)-adhering cells from C57BL/6 mouse (Charles River Japan) spleen cells. Using a 96 well plate to which an anti-CD3ε antibody (10 μg/ml) (Sederlane) had been immobilized in advance, T cells (2×10^5 cells/0.2 ml) were inoculated under stimulation with anti-CD28 antibody (1 μg/ml) (Pharmingen), IL-2 (10 ng/ml) (Peprotech) and IL-4 (10 ng/ml) (Peprotech). After 2 days of the culturing, total volume of the cell suspension was diluted to 2 ml with a medium containing IL-2 (10 ng/ml) and IL-4 (10 ng/ml). The differentiation was induced by further carrying out the culturing for 3 days. By counting the cell density, the cells after differentiation were adjusted to 1×10^6 cells/ml and inoculated into a 96 well plate immobilized with the anti-CD3 ε antibody, in order to induce IL-4 production. The supernatant after 24 hours of the stimulation was recovered, and the IL-4 production was determined by an ELISA method. The antibody used in the ELISA was purchased from Pharmingen. Also, an HRPO-labeled streptoavidin (Amersham Pharmacia) was used in the detection of biotinylated antibody, and a peroxidase color developing reagent (Sumitomo Bakelite) was used in the HRPO color development. In the case of the evaluation of compounds, compound dilutions were added to the wells before the addition of T cells, at the time of the dilution 2 days later, compounds equivalent to the initial concentration were added. Also, regarding the dilution of compounds, dilution was carried out using 10% FBS-containing RPMI 1640 such that the final concentration of DMSO in which each compound was dissolved became 0.1% or less. Inhibitory activity of each tested compound was evaluated in which the IL-4 production when DMSO was added instead of the compound was regarded as 100%, and the IL-4 production when anti-CD28 antibody and IL-4 were not added as 0%.

[1] = inhibition ratio at 0.1 μM compound, IL-4-stimulated CI/FW4 cell, luciferase
[2] = inhibition ratio at 1 μM compound, IL-4-stimulated CI/FW4 cell, luciferase

SMILES	inhibition of STAT 6-dependent reporter activity (activity similar to the compounds of Table 26) (STAT 6; CI/FW4 cell, 10 ng/ml human IL-4, luciferase)	Inh (%) (T cells)	Inh (%) 0.1 μM (STAT 6; [1]) [%]	Inh (%) 1 μM (STAT 6; [2]) [%]	inhibition at 0.1 µM (STAT 6; [1]) [%]	inhibition at 1 µM (STAT 6; [2]) [%]
Cc1cccc(Nc2nc(NCCc3ccc(O)c(Cl)c3)ncc2C(N)=O)c1 [Production Example 99]	good activity	85				
COc1ccccc1CNc1nc(Nc2ccc(N3CCOCC3)cc2)ncc1C(N)=O [Example 35]		94	95	100		
NC(=O)c1cnc(Nc2ccc(N3CCOCC3)cc2)nc1NCc1ccccc1 [Example 3, 4-benzylamino-2-{[4-(morpholin-4-yl)phenyl]amino}pyrimidine-5-carboxamide]		98			100	100
